Results on ten compounds are retold here after patent US10093630B2, “Pyrazole compounds and methods of making and using same” (ABIDE THERAPEUTICS, INC., priority 2014, dated 2018).

The term inhibition denotes the percentage by which the read-out fell short of the control. The IC50 is the concentration at which inhibition is half-maximal.

What all share (experiment): In vitro competitive activity-based protein profiling (gel-based, FP-Rh or HT-01 probe)
Holding throughout (format): biochemical

For test [1], the target named is T1, ABHD6 (Mus musculus, UniProt Q8R2Y0).
T1 construct: Proteomes (mouse brain membrane fraction or cell lysates); from tissue; host or cells: mouse brain membrane fraction (or cell lysates, not specified)
T1 sequence (Q8R2Y0 1-336): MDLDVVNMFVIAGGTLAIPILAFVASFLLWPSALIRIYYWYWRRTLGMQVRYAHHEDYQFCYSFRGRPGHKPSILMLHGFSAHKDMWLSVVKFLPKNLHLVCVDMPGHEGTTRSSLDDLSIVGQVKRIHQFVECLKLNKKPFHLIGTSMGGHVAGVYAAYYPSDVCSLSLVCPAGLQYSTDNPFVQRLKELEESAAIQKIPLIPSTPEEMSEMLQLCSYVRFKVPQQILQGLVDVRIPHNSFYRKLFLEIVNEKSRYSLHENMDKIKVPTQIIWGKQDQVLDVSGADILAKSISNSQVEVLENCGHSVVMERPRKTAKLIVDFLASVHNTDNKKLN
Particulars: for inhibition at 1 µM: 1 μM inhibitor, read-out: % Inhibition at 1 μM, C = ABHD6; for inhibition at 10 µM: 10 μM inhibitor, read-out: % Inhibition at 10 μM, C = ABHD6; for IC50: mouse brain membrane fraction or cell lysates, 30 min preincubation at 37° C., read-out: Mouse (IC50 value, nM) ABHD6. A digest of the protocol: (§1)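 Gel-based read-out: fluorescent band intensity after SDS-PAGE reflected remaining hydrolase activity. Inhibitors were preincubated 30 min at 37° C with 1.0 mg/mL mouse brain membrane or lysate proteome before a further 30 min at 37° C with FP-Rh or HT-01 probe.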

For test [2], the target named is T2, FAAH (Mus musculus, UniProt O08914).
T2 construct: Proteomes (mouse brain membrane fraction or cell lysates); from tissue; host or cells: mouse brain membrane fraction (or cell lysates, not specified)
T2 sequence (O08914 1-579): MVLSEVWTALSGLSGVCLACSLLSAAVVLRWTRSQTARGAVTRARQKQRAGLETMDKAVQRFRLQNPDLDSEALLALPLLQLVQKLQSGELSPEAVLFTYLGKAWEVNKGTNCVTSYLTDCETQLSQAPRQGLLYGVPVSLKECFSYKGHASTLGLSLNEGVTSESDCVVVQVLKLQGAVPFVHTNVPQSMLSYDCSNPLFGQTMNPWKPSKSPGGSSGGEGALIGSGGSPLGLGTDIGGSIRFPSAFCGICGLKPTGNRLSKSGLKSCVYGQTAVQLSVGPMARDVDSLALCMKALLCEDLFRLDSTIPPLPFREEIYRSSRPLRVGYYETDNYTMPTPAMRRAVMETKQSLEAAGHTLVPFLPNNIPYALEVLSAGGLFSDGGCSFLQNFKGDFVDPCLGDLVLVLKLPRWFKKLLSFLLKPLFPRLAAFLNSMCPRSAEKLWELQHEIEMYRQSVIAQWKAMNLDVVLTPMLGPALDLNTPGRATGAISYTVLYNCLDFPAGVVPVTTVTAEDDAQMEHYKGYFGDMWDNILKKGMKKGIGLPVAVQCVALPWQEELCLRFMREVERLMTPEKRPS
Particulars: for inhibition at 1 µM: 1 μM inhibitor, read-out: % Inhibition at 1 μM, B = FAAH; for inhibition at 10 µM: 10 μM inhibitor, read-out: % Inhibition at 10 μM, B = FAAH; for IC50: mouse brain membrane fraction or cell lysates, 30 min preincubation at 37° C., read-out: Mouse (IC50 value, nM) FAAH. A digest of the protocol: as §1

Test [3] deals with T3, MAGL (Mus musculus, UniProt O35678).
T3 construct: Proteomes (mouse brain membrane fraction or cell lysates); from tissue; host or cells: mouse brain membrane fraction (or cell lysates, not specified)
T3 sequence (O35678 1-303): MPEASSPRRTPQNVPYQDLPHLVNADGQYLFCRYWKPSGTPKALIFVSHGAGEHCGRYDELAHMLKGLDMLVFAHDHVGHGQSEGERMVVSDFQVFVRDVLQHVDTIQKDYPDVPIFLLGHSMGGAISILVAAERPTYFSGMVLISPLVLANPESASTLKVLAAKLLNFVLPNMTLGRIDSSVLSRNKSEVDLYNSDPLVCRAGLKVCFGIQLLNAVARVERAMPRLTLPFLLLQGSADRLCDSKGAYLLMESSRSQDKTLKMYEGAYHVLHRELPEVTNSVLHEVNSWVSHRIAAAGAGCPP
To be noted: for inhibition at 1 µM: 1 μM inhibitor; for inhibition at 10 µM: 10 μM inhibitor; for IC50: mouse brain membrane fraction or cell lysates, 30 min preincubation at 37° C., read-out: Mouse (IC50 value, nM) MAGL. A digest of the protocol:
as §1

The target in test [4] is T4, PLA2G7 (Mus musculus, UniProt Q60963).
T4 construct: Proteomes (mouse brain membrane fraction or cell lysates); from tissue; host or cells: mouse brain membrane fraction (or cell lysates, not specified)
T4 sequence (Q60963 22-440): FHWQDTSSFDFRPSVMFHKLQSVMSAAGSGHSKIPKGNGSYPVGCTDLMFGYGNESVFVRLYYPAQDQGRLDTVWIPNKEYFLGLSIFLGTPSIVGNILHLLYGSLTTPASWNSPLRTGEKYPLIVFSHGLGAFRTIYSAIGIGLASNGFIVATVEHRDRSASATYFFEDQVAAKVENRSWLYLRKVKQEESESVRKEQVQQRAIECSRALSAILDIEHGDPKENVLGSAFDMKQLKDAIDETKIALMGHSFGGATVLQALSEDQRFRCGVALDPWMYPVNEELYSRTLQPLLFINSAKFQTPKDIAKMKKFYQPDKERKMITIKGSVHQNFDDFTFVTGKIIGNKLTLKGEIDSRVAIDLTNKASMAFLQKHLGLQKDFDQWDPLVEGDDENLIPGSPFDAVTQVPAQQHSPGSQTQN
To be noted: for inhibition at 1 µM: 1 μM inhibitor, read-out: % Inhibition at 1 μM, D = PLA2G7; for inhibition at 10 µM: 10 μM inhibitor, read-out: % Inhibition at 10 μM, D = PLA2G7; for IC50: mouse brain membrane fraction or cell lysates, 30 min preincubation at 37° C. The gist of the method: as §1

Take `Cc1cc(-c2ccccc2)ccc1CN1CCN(C(=O)n2cc(Cl)cn2)CC1` [Example 137, (4-Chloro-1H-pyrazol-1-yl)(4-((3-methylbiphenyl-4-yl)methyl)piperazin-1-yl)methanone]: the inhibition at 1 µM was over 75% in test [1], over 75% in test [2], over 75% in test [3] and under 25% in test [4]. Besides, the inhibition at 10 µM in test [1] was over 75%; in test [2], over 75%; in test [3] it was over 75%; in test [4] it was 25 to 75%. For the same compound, the IC50 was 100 to 1000 nM in test [1], under 100 nM in test [2], under 100 nM in test [3] and over 1000 nM in test [4].
As to `Cc1cc(-c2ccccc2)ccc1CN1CCN(C(=O)n2cc(C#N)cn2)CC1` [Example 138, 1-(4-((3-methylbiphenyl-4-yl)methyl)piperazine-1-carbonyl)-1H-pyrazole-4-carbonitrile], the inhibition at 1 µM in test [1], in test [2], in test [3] and in test [4] was over 75% in each case. For the same compound, the inhibition at 10 µM in test [1], in test [2], in test [3] and in test [4] was over 75% throughout. In addition, the IC50 in test [1], in test [2], in test [3] and in test [4] was under 100 nM throughout.
As to `O=C(N1CCN(Cc2ccc(-c3ccccc3)cc2Cl)CC1)n1cc(Cl)cn1` [Example 139, (4-chloro-1H-pyrazol-1-yl)(4-((3-chlorobiphenyl-4-yl)methyl)piperazin-1-yl)methanone], the inhibition at 1 µM in test [1] was over 75%; in test [2], over 75%; in test [3], over 75%; in test [4], under 25%. Besides, the inhibition at 10 µM in test [1], in test [2], in test [3] and in test [4] was over 75% each time. Also, the IC50 is 100 to 1000 nM in test [1], under 100 nM in test [2], under 100 nM in test [3] and over 1000 nM in test [4].
As for `N#Cc1cnn(C(=O)N2CCN(Cc3ccc(-c4ccccc4)cc3Cl)CC2)c1` [Example 140, 1-(4-((3-chlorobiphenyl-4-yl)methyl)piperazine-1-carbonyl)-1H-pyrazole-4-carbonitrile], the inhibition at 1 µM in test [1], in test [2], in test [3] and in test [4] was over 75% throughout. For the same compound, the inhibition at 10 µM in test [1], in test [2], in test [3] and in test [4] was over 75% throughout.
On to `COc1cc(-c2ccccc2)ccc1CN1CCN(C(=O)n2cc(Cl)cn2)CC1` [Example 141, (4-Chloro-1H-pyrazol-1-yl)(4-((3-methoxybiphenyl-4-yl)methyl)piperazin-1-yl)methanone], for which the inhibition at 1 µM in test [1] is over 75%; in test [2], over 75%; in test [3], over 75%; in test [4], under 25%. In addition, the inhibition at 10 µM in test [1], in test [2], in test [3] and in test [4] was over 75% each time. Besides, the figures for the half-maximal inhibitory concentration (IC50) in test [1], in test [2] and in test [3] were 100 to 1000 nM, 100 to 1000 nM and under 100 nM, respectively.
Take `Cc1cc(-c2ccccc2)ccc1CN1CCN(C(=O)n2cc(C(F)(F)F)cn2)CC1` [Example 142, (4-((3-Methylbiphenyl-4-yl)methyl)piperazin-1-yl)(4-(trifluoromethyl)-1H-pyrazol-1-yl)methanone]: the inhibition at 1 µM in test [1], in test [2], in test [3] and in test [4] was over 75% throughout. Also, the inhibition at 10 µM in test [1], in test [2], in test [3] and in test [4] was over 75% in each case. Also, the concentration for half-maximal inhibition (IC50) in test [1] was 100 to 1000 nM; in test [2], under 100 nM; in test [3] it was under 100 nM.
Regarding `O=C(N1CCN(Cc2ccc(-c3ccccc3)cc2Cl)CC1)n1cc(C(F)(F)F)cn1` [Example 143, (4-((3-Chlorobiphenyl-4-yl)methyl)piperazin-1-yl)(4-(trifluoromethyl)-1H-pyrazol-1-yl)methanone], the inhibition at 1 µM in test [1] was over 75%; in test [2], over 75%; in test [3] it was over 75%; in test [4], 25 to 75%. The inhibition at 10 µM in test [1], in test [2], in test [3] and in test [4] was over 75% in each case. For the same compound, the IC50 in test [1] was 100 to 1000 nM; in test [2], under 100 nM; in test [3] it was under 100 nM.
`COc1cc(-c2ccccc2)ccc1CN1CCN(C(=O)n2cc(C(F)(F)F)cn2)CC1` [Example 144, (4-((3-Methoxybiphenyl-4-yl)methyl)piperazin-1-yl)(4-(trifluoromethyl)-1H-pyrazol-1-yl)methanone]: the inhibition at 1 µM in test [1], in test [2], in test [3] and in test [4] was over 75% in each case. Also, the inhibition at 10 µM in test [1], in test [2], in test [3] and in test [4] was over 75% in each case.
`COc1cc(-c2ccccc2)ccc1CN1CCN(C(=O)n2cc(C#N)cn2)CC1` [Example 145, 1-(4-((3-Methoxybiphenyl-4-yl)methyl)piperazine-1-carbonyl)-1H-pyrazole-4-carbonitrile]: the inhibition at 1 µM in test [1], in test [2], in test [3] and in test [4] was over 75% throughout. Also, the inhibition at 10 µM in test [1], in test [2], in test [3] and in test [4] was over 75% each time.
Take `N#Cc1cnn(C(=O)N2CCN(Cc3ccc(-c4ccccc4)cc3OCc3ccccc3)CC2)c1` [Example 146, 1-(4-((3-(Benzyloxy)biphenyl-4-yl)methyl)piperazine-1-carbonyl)-1H-pyrazole-4-carbonitrile]: the inhibition at 1 µM in test [1] is over 75%; in test [2] it was over 75%; in test [3], over 75%; in test [4], under 25%. The inhibition at 10 µM in test [1], in test [2], in test [3] and in test [4] was over 75% throughout.
